Data taken from publication PMC8262356, “SLC26A6-selective inhibitor identified in a small-molecule screen blocks fluid absorption in small intestine” (JCI Insight, 2021).

How the values were obtained:
[1] = test system: loperamide-induced constipation in mice; assay: Loperamide model of constipation; assay type: in vivo, mouse; conditions: 10 mg/kg, oral, stool collected over 3 hours
Procedure: Wild-type CD1 mice were administered loperamide (0.3 mg/kg, intraperitoneally) in PBS containing 5% ethanol (0.1 mg/mL final concentration) to induce constipation ([9], [30]). PAT1inh-B01 and DRAinh-A270, individually or together (10 mg/kg each, in saline containing 5% DMSO and 10% Kolliphor HS 15), or vehicle control were administered by oral gavage 1 hour before loperamide. After loperamide injection mice were placed individually in metabolic cages with free access to food and water. Stool samples were collected for 3 hours, and total stool weight and number of fecal pellets were quantified. To measure stool water content, stool samples were dried at 80°C for 24 hours and water content was calculated as follows: (wet weight – dry weight)/wet weight ([9], [30]).

[2] = target: T1, CFTR (Homo sapiens, UniProt P13569); assay: Short-circuit current in well-differentiated HBE cells, forskolin/CFTRinh-172 response; assay type: cell-based; conditions: 25 μM pretreatment
T1 construct: endogenous in cells; host or cells: well-differentiated human bronchial epithelial (HBE) cells at air-liquid interface
T1 sequence (P13569 whole entry): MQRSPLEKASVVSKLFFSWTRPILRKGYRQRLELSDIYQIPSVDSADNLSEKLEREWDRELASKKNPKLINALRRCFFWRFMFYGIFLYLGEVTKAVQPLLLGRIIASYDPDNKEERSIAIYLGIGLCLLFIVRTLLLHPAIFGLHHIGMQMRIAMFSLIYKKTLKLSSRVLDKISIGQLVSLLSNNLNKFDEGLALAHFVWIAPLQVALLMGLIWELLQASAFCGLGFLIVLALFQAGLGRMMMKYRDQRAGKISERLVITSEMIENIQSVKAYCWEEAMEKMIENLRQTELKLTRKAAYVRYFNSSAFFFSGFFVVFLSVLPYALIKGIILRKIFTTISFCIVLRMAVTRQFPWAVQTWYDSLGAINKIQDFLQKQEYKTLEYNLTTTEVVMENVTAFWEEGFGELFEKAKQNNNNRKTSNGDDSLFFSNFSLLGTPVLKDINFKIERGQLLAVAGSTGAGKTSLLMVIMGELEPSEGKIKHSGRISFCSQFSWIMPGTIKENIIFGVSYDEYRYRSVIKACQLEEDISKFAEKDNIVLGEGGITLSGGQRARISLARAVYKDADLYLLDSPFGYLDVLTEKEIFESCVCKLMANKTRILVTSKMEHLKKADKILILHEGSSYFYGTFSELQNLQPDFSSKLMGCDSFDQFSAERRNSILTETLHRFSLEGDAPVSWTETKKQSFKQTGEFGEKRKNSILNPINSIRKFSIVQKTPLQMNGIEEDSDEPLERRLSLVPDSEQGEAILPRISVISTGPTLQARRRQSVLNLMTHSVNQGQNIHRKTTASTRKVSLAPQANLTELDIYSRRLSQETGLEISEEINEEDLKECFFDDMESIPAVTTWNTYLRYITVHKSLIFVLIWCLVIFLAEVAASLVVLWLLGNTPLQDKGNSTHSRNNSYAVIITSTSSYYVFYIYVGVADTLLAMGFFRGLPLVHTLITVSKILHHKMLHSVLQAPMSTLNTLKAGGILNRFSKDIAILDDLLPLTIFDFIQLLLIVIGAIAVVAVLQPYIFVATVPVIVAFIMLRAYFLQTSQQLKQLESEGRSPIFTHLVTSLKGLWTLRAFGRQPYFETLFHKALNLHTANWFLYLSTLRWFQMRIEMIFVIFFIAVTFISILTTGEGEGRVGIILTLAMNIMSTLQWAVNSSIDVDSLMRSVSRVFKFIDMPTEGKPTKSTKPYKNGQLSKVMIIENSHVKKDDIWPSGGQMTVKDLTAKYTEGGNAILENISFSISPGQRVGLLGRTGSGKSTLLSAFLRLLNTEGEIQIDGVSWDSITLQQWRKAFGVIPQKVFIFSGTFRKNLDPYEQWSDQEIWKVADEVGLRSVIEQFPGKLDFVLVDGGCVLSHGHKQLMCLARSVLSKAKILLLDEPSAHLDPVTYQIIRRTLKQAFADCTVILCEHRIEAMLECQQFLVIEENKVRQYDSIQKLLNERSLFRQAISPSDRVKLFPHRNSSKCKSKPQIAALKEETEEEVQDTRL
Procedure: (§1) PAT1inh-B01 selectivity was studied by testing its effects on related SLC26A family anion transporters and the Cl^– channel TMEM16A. These measurements used a similar Cl^–/I^– exchange protocol, but FRT cells separately expressed each of the SLC26A family members or TMEM16A. […] PAT1inh-B01 selectivity was also tested by short-circuit current (Isc) in well-differentiated human bronchial epithelial (HBE) cells, which have a complex ion transport mechanism that includes cystic fibrosis transmembrane conductance regulator (CFTR), epithelial Na^+ channel (ENaC), and Ca^+2-activated chloride channels (CaCCs) ([13]). […] Potential PAT1inh-B01 cytotoxicity was studied in FRT cells.
(§2) Figure 3 PAT1inh-B01 selectivity and cytotoxicity. […] Cl^–/I^– exchange or I^– influx measured in FRT cells coexpressing YFP and SLC26A isoforms or TMEM16A, with data shown for 25 μM PAT1inh-B01, DMSO vehicle control, and 500 μM niflumic acid (positive control for SLC26A transporters) or 10 μM TMinh-23 (positive control for TMEM16A). […] (C) (left) Short-circuit current (Isc) in well-differentiated HBE cells measured in the absence (top) and presence (bottom) of 25 μM PAT1inh-B01. […]
(§3) YFP-based cellular assays of slc26a3, slc26a4, SLC26A9, and TMEM16A function were performed as described previously ([7]). […] The activities of ENaC, CFTR, and CaCC were determined using well-differentiated HBE cells as described previously ([13]). […]

[3] = test system: TMEM16A; assay: Selectivity: I- influx in FRT cells coexpressing YFP and TMEM16A; assay type: cell-based; conditions: 25 μM
Procedure: as §1, §2, §3

For `Cc1c(Br)c(C(F)(F)F)nn1CC(=O)N1CCc2nc3cc(-c4ccccc4)[nH]n3c(=O)c2C1` [PAT1inh-B01], the “effect on stool parameters (weight, number of pellets, water content)” value [1] was “did not affect”, the “effect on CFTR activity (Isc response to forskolin/CFTRinh-172)” value [2] was “no significant effect” and the “inhibition of TMEM16A” value [3] was “did not significantly inhibit”.
